Results taken from patent US4126606A, “Physiologically active peptides and a process for preparation thereof” (Zaidan Hojin Biseibutsu Kagaku Kenkyu Kai, priority 1976, dated 1978).

Assay: ID50 determination of amastatin preparations (inhibitory activity)
Type: biochemical

Substance | ID50
N-acetyl amastatin A2 | 450 µg/mL
amastatin A1 | 0.65 µg/mL
amastatin A2 | 0.54 µg/mL
amastatin A2 dimethyl ester | 17 µg/mL
amastatin A3 | 1.0 µg/mL
amastatin B2 | 1.0 µg/mL
amastatin RB1 | 1.50 µg/mL
hydrochloric acid salt of amastatin A1 [HCl A1] | 0.75 µg/mL
